Legend:
human PDE10A2 = human PDE10A2 (Homo sapiens (Human), UniProt Q9Y233); assay: PDE10A enzyme inhibition, PDE IMAP TR-FRET assay; format: biochemical; details: FAM-cAMP substrate
Method: An IMAP TR-FRET assay was used to analyze the enzyme activity (Molecular Devices Corp., Sunnyvale Calif.). 10 μL of serial diluted PDE10A (BPS Bioscience, San Diego, Calif.) or tissue homogenate was incubated with equal volumes of diluted fluorescein labeled cAMP or cGMP for 90 min in 384-well Polypropylene assay plates (Greiner, Monroe, N.C.) at room temperature. After incubation, the reaction was stopped by adding 55 μL of diluted binding reagents and was incubated for 4 hours to overnight at room temperature. The plates were read on an Envision (Perkin Elmer, Waltham, Mass.) for time resolved fluorescence resonance energy transfer. The data were analyzed with Genedata Screener® (Lexington, Mass.).
To check the inhibition profile, 0.2 μL of serial diluted compounds were incubated with 10 μL of diluted PDE10 enzyme (BPS Bioscience, San Diego, Calif.) or tissue homogenate in a 384-well Polypropylene assay plate (Greiner, Monroe, N.C.) for 60 min at room temperature. After incubation, 10 μL of diluted fluorescein labeled cAMP or cGMP substrate was added and incubated for 90 min at room temperature. The reaction was stopped by adding 55 μL of diluted binding reagents and plates were read on an Envision (Perkin Elmer, Waltham, Mass.) for time resolved fluorescence resonance energy transfer. The data were analyzed with Genedata Screener® (Lexington, Mass.).
Purified human PDE2A1 and PDE10A2 enzymes were obtained from BPS Bioscience (San Diego, Calif.). IMAP™ TR-FRET progressive binding system, FAM-cAMP substrate were from Molecular Devices (Sunnyvale, Calif.).
The PDE IMAP assay was conducted in a 384-well black Greiner polypropylene plate (Sigma, St. Louis, Mo.). PDE inhibitors were serial diluted in 100% DMSO and dispensed into assay plate at […] per well using Echo® Liquid Handling System from LABCYTE. Ten μL of PDE enzyme in IMAP reaction buffer (10 mM Tris-HCl, pH 7.2, 10 mM MgCl2, 0.05% NaN3, and 0.01% Tween-20) was added into the assay wells. The PDE enzyme concentration used was based on each lot of enzyme activity, to ensure enzyme reaction falls in a linear range under assay condition. 1.4 nM of PDE2 or 8 μM PDE10 were used in the assay system. […] Enzyme reaction was allowed to proceed at room temperature for 90 min, and the reaction is stopped by 55 μl addition of binding reagent according to manufacturer's recommendation. The mixture is further incubated at room temperature for additional 4 hours, and signal was read on an Envision multimode reader (PerkinElmer). Fluorescence signals were measured at 520 nm and 485 nm. The signal ratio at 520/485 nm corresponded to the generation of reaction product of AMP, and it was used in all data analysis. Values from DMSO-treated wells were normalized to POC=100, and no-enzyme wells were normalized to POC=0. IC50 values were determined by using the Genedata Screener V9.0.1. The curve fitting algorithm used for dose response data analysis in Genedata Screener is a custom implementation of a robust curve-fitting algorithm called ROUT (Robust regression with outlier detection) and uses a four-parameter logistical (4 PL) Hill model.

human MDR1 (P-gp) = human MDR1 (P-gp) (Homo sapiens (Human), UniProt P08183); assay: Transcellular transport in human MDR1-transfected LLC-PK1 cells; format: in vitro ADME; details: pH 7.4, MDR1-LLC-PK1, 5 μM test compound
human MDR1 (P-gp), sequence (P08183 whole entry): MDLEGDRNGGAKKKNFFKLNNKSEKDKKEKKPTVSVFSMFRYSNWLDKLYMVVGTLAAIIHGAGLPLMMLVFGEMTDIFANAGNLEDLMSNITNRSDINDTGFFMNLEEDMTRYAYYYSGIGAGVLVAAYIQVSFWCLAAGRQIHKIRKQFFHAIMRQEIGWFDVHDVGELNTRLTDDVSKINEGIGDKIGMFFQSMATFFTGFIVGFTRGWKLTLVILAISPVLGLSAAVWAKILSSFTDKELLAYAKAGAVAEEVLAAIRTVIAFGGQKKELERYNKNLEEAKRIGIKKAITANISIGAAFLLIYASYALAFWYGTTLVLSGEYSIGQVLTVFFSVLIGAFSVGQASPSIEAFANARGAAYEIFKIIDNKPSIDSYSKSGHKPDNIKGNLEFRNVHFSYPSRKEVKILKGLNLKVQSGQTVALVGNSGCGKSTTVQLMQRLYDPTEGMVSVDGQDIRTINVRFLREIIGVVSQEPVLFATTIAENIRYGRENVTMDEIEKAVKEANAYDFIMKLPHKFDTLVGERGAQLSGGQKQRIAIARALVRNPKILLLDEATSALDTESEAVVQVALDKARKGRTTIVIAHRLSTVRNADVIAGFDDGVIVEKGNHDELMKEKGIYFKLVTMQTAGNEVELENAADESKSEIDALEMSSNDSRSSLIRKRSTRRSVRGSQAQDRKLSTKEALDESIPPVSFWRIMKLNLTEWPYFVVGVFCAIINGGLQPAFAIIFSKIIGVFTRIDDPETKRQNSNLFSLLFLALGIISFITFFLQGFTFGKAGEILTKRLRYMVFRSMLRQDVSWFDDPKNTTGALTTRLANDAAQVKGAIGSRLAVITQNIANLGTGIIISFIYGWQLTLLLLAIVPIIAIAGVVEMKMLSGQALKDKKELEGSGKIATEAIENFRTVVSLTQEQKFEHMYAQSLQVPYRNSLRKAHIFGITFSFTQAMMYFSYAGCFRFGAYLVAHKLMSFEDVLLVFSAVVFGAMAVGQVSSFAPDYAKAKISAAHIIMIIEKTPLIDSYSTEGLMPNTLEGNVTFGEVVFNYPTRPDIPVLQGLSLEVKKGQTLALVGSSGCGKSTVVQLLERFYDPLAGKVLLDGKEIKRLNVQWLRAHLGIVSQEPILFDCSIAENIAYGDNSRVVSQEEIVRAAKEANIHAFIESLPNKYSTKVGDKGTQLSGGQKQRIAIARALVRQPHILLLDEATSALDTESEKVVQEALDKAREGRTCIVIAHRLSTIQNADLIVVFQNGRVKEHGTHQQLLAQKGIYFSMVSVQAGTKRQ
Method: Digoxin and mannitol were purchased from Sigma-Aldrich (St. Louis, Mo.). 3H-digoxin and 14C-mannitol were purchased from PerkinElmer Life and Analytical Sciences (Boston, Mass.). Transport buffer was prepared using Hank's balanced salt solution (HBSS) supplemented with 10 mM Hepes, pH 7.4 and 0.1% BSA (HHBSS, Invitrogen, Grand Island, N.Y., BSA, Bovine Serum Albumin, Calbiochem, La Jolla, Calif.).
Cultures were incubated at 37° C. in a humidified (95% relative humidity) atmosphere of 5% CO2/95% air. The parental cell line LLC-PK1 (porcine renal epithelial cells) was purchased from American Type Culture Collection (ATCC, Manassas, Va.). Human MDR1 and Sprague-Dawley rat mdra1 transfectants in LLC-PK1 were generated at Amgen (Thousand Oaks, Calif.). Cells were cultured in Medium 199 supplemented with 2 mM L-glutamine, penicillin (50 units/mL), streptomycin (50 μg/mL), and 10% (v/v) fetal bovine serum (all from Invitrogen) (Schinkel et al, 1995).
LLC-PK1, MDR1-LLC-PK1, and mdr1a-LLC-PK1 cell monolayers were seeded onto porous (1.0 μm) polycarbonate 96-well transwell membrane filters (Millipore Corp., Billerica, Mass.) and cultured for six days with one media replacement on day four prior to transwell experiments. Cells were washed once with warmed HHBS prior to transwell experiments. Experiments were initiated by replacing the buffer in each compartment with 0.15 mL of HBSS containing 0.1% BSA with and without 5 μM of test compound in triplicate wells. The plates were incubated for two hours at 37° C. in an EVO incubator with shaking. Aliquots (100 μl) from both donor and receiver chambers were transferred to 96 well plates or scintillation vials. Protein was precipitated by addition of 200 μL acetonitrile containing 0.1% formic acid and prazosin (25 ng/mL) as internal standard. After vortexing and centrifugation at 3000 rpm for 20 min, 150 μL supernatant samples were transferred to a new plate containing 50 μL water for LC-MS/MS analysis. Transcellular transport of 3H-Digoxin was used as a positive control for Pgp. Paracellular permeability of 14C-Mannitol was used to measure the integrity of the monolayer. Sample radioactivity was measured using a liquid scintillation counter (Packard Tri-Carb 2910TR, PerkinElmer).
The apparent permeability coefficient (Papp) of all tested agents was estimated from the slope of cumulative amount (dQ) of the agent vs. time (dt), and the equation: Papp=(dQ/dt)/(A*C0)
where dQ/dt is the penetration rate of the agent […], A is the surface area of the cell layer on the Transwell (0.11 cm2), and CO is the initial concentration of the test compound (μM).

human PDE10A2, sequence (Q9Y233 267-1055): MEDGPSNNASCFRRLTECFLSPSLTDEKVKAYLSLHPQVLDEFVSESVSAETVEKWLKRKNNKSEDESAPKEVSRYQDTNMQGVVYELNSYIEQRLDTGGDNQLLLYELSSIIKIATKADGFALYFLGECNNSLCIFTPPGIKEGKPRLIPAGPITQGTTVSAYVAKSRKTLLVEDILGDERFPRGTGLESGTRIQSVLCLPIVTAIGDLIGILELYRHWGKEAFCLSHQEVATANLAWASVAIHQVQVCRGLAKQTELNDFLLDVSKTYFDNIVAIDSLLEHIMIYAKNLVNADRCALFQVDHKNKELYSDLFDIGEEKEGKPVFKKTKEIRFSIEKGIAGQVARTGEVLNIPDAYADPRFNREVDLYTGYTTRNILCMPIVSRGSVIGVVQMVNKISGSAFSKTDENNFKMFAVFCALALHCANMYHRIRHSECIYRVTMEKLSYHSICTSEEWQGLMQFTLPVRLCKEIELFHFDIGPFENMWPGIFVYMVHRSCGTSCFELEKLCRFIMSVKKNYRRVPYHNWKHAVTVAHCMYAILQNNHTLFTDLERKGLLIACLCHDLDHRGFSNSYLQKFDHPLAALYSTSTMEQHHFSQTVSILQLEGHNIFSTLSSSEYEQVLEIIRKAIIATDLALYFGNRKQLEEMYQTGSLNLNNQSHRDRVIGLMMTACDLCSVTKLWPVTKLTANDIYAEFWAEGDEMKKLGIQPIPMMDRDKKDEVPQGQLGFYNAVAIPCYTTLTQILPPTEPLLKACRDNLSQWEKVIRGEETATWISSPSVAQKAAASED

CNC(=O)c1ccc(-c2nccnc2C2CN(c3ncc4ccccc4n3)C2)cc1F [Example 6, 2-Fluoro-N-Methyl-4-(3-(1-(Quinazolin-2-Yl)Azetidin-3-Yl)Pyrazin-2-Yl)Benzamide] was tested. Which IC50 (human PDE10A2) did it give?
The IC50 was 7.6 nM.

What about the efflux ratio at 2 h, 5 μM (human MDR1 (P-gp)) of the same compound?
Its efflux ratio at 2 h, 5 μM is 1.8.

CNC(=O)c1ccc(-c2nccnc2C2CN(c3ncc4ccc(Cl)cc4n3)C2)cc1F [Example 10, 4-(3-(1-(7-Chloroquinazolin-2-Yl)Azetidin-3-Yl)Pyrazin-2-Yl)-2-Fluoro-N-Methylbenzamide] was tested. Which IC50 (human PDE10A2) did it give?
Its IC50 is 5.9 nM.

And the efflux ratio at 2 h, 5 μM (human MDR1 (P-gp))?
The efflux ratio at 2 h, 5 μM was 1.8.

Which results are given for CNC(=O)c1ccc(-c2nccnc2C2CN(c3ccc4ccccc4n3)C2)cc1F [Example 7, 2-Fluoro-N-Methyl-4-(3-(1-(Quinolin-2-Yl)Azetidin-3-Yl) Pyrazin-2-Yl)Benzamide]?
IC50 (human PDE10A2): 4 nM; efflux ratio at 2 h, 5 μM (human MDR1 (P-gp)): 2.95

With CNC(=O)c1ccc(-c2nccnc2C2CN(c3ccc4ncc(Cl)cc4n3)C2)cc1F [Example 14, 4-(3-(1-(7-Chloro-1,5-Naphthyridin-2-Yl)Azetidin-3-Yl)Pyrazin-2-Yl)-2-Fluoro-N-Methylbenzamide] as the compound, how does the IC50 (human PDE10A2) read?
The IC50 was 3.6 nM.

What about the efflux ratio at 2 h, 5 μM (human MDR1 (P-gp)) of the same compound?
The efflux ratio at 2 h, 5 μM was 1.25.

Which results are given for CNC(=O)c1ccc(-c2nccnc2C2CN(c3ccc4ccc(F)cc4n3)C2)cc1F [Example 8, 2-Fluoro-4-(3-(1-(7-Fluoroquinolin-2-Yl)Azetidin-3-Yl) Pyrazin-2-Yl)-N-Methylbenzamide]?
IC50 (human PDE10A2): 0.5 nM; efflux ratio at 2 h, 5 μM (human MDR1 (P-gp)): 2.8

Which results are given for CNC(=O)c1ccc(-c2nccnc2C2CCN(c3ccc4ccc(Cl)cc4n3)CC2)cc1F [Example 1, 4-(3-(1-(7-Chloroquinolin-2-Yl)Piperidin-4-Yl)Pyrazin-2-Yl)-2-Fluoro-N-Methylbenzamide]?
IC50 (human PDE10A2): 28.7 nM; efflux ratio at 2 h, 5 μM (human MDR1 (P-gp)): 2.9

CNC(=O)c1ccc(-c2nccnc2C2CN(c3ncc4ccc(F)cc4n3)C2)cc1F [Example 9, 2-Fluoro-4-(3-(1-(7-Fluoroquinazolin-2-Yl)Azetidin-3-Yl)Pyrazin-2-Yl)-N-Methylbenzamide] was tested. Which IC50 (human PDE10A2) did it give?
Its IC50 is 30.9 nM.

And the efflux ratio at 2 h, 5 μM (human MDR1 (P-gp))?
Its efflux ratio at 2 h, 5 μM is 1.8.

What does the source list for CNC(=O)c1ccc(-c2nccnc2C2CCN(c3ccc4ccccc4n3)CC2)cc1F [Example 3, 2-Fluoro-N-Methyl-4-(3-(1-(Quinolin-2-Yl)Piperidin-4-Yl)Pyrazin-2-Yl)Benzamide]?
IC50 (human PDE10A2): 3.1 nM; efflux ratio at 2 h, 5 μM (human MDR1 (P-gp)): 2

Which results are given for CNC(=O)c1ccc(-c2nccnc2C2CN(c3ncc4cc(F)ccc4n3)C2)cc1F [Example 11, 2-Fluoro-4-(3-(1-(6-Fluoroquinazolin-2-Yl)Azetidin-3-Yl)Pyrazin-2-Yl)-N-Methylbenzamide]?
IC50 (human PDE10A2): 16.6 nM; efflux ratio at 2 h, 5 μM (human MDR1 (P-gp)): 1.75

CNC(=O)c1ccc(-c2nccnc2C2CCN(c3ccc4cccc(F)c4n3)CC2)cc1F [Example 5, 2-Fluoro-4-(3-(1-(8-Fluoroquinolin-2-Yl)Piperidin-4-Yl)Pyrazin-2-Yl)-N-Methylbenzamide] was tested. Which IC50 (human PDE10A2) did it give?
Its IC50 is 7.5 nM.

What about the efflux ratio at 2 h, 5 μM (human MDR1 (P-gp)) of the same compound?
Its efflux ratio at 2 h, 5 μM is 2.5.

What does the source list for CNC(=O)c1ccc(-c2nccnc2C2CCN(c3ccc4cc(F)ccc4n3)CC2)cc1F [Example 4, 2-Fluoro-4-(3-(1-(6-Fluoroquinolin-2-Yl)Piperidin-4-Yl)Pyrazin-2-Yl)-N-Methylbenzamide]?
IC50 (human PDE10A2): 2.8 nM; efflux ratio at 2 h, 5 μM (human MDR1 (P-gp)): 3.4

Which IC50 (human PDE10A2) does the source give for CNC(=O)c1ccc(-c2nccnc2C2CN(c3ccc4cc(F)ccc4n3)C2)cc1F [Example 13, 2-Fluoro-4-(3-(1-(6-Fluoroquinolin-2-Yl)Azetidin-3-Yl) Pyrazin-2-yl)-N-Methylbenzamide] here?
The IC50 was 1.7 nM.

And the efflux ratio at 2 h, 5 μM (human MDR1 (P-gp))?
The efflux ratio at 2 h, 5 μM was 3.02.

Which IC50 (human PDE10A2) does the source give for CNC(=O)c1ccc(-c2nccnc2C2CN(c3ncc4cc(F)c(Cl)cc4n3)C2)cc1F [Example 12, 4-(3-(1-(7-Chloro-6-Fluoroquinazolin-2-Yl)Azetidin-3-Yl)Pyrazin-2-Yl)-2-Fluoro-N-Methylbenzamide] here?
The IC50 was 3.9 nM.

And the efflux ratio at 2 h, 5 μM (human MDR1 (P-gp))?
Its efflux ratio at 2 h, 5 μM is 1.85.

How did the IC50 (human PDE10A2) turn out when CNC(=O)c1ccc(-c2nccnc2C2CCN(c3ccc4ccc(F)cc4n3)CC2)cc1F [Example 2, 2-Fluoro-4-(3-(1-(7-Fluoroquinolin-2-Yl)Piperidin-4-Yl) Pyrazin-2-Yl)-N-Methylbenzamide] was run?
The IC50 was 6.3 nM.

And the efflux ratio at 2 h, 5 μM (human MDR1 (P-gp))?
Its efflux ratio at 2 h, 5 μM is 2.4.
